Columns and labels:
[1] = test system: Gli-Luc/MEF cells (Smo); experiment: Gli-Luc/MEF assay (Shh-stimulated luciferase reporter under the Gli response element); type: cell-based, mouse; conditions: Mus musculus, MEF, 48 h
Outline: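 Mouse Gli-Luc/MEF cells dosed with compound (3-fold series, […]) plus 2 μg/mL recombinant mouse Shh, then incubated 48 h at 37° C, 5% CO2. Bright-Glo luminescence read; IC50 calculated from inhibition of Shh-stimulated luciferase.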

[2] = molecular target: T1, human Smo (amino acids 181-787) (Homo sapiens, UniProt Q99835); experiment: Smo radioligand competition binding assay (displacement of 3H-PF-03451358 from HEK293 membranes); conditions: for inhibition at 0.05 µM: 0.05 μM test compound, displacement of 3H-PF-03451358, read-out: SMO % inh. @ 0.05 μM; for IC50: radioligand competition binding
T1 construct: expressed in transfected cells; membrane preparation
Outline: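 Membranes (40 μg protein/well) from HEK293 expressing murine Igk-leader-fused Smo 181-787 incubated 2 h at room temperature with 3 nM 3H-PF-03451358 in Tris pH 7.5/NaCl/MgCl2/EDTA/BSA buffer; filter-bound counts by scintillation. Nonspecific binding with 30 μM cold PF-03451358; IC50 from four-parameter fit of % inhibition.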

T1 sequence (Q99835 181-787): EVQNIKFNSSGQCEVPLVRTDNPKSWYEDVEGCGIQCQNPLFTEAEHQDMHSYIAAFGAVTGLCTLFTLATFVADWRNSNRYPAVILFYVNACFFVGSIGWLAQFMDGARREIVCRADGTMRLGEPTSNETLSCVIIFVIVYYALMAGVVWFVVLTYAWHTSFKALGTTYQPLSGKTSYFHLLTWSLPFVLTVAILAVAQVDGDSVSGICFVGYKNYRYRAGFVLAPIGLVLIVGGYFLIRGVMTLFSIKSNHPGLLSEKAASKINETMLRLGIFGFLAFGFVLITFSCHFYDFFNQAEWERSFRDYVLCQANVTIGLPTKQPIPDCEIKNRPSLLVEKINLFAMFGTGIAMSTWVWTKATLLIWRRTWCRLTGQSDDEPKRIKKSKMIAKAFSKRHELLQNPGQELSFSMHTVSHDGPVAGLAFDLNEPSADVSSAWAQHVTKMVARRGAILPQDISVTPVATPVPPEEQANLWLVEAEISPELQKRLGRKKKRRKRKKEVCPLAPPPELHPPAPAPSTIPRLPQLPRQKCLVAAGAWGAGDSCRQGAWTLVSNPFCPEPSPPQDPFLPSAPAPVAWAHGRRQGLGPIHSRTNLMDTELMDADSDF

Row | Compound | IC50 [1] | inhibition at 0.05 µM [2] | IC50 [2]
1 | Cn1c(-c2cc(N3CCN(S(=O)(=O)CCO)CC3)ncc2F)nc2ccccc21 [Example D-15, 2-({4-[5-fluoro-4-(1-methyl-1H-benzimidazol-2-yl)pyridin-2-yl]piperazin-1-yl}sulfonyl)ethanol] | 11 nM | 101% | 19 nM
2 | CNC(=O)NC1CCN(c2cc(-c3nc4ccccc4n3C)c(F)cn2)CC1 [Example D-13, 1-{1-[5-fluoro-4-(1-methyl-1H-benzimidazol-2-yl)pyridin-2-yl]piperidin-4-yl}-3-methylurea] | 13.4 nM | 97% | 23 nM
3 | Cn1c(-c2cc(NCCS(N)(=O)=O)ncc2Cl)nc2ccccc21 [Example A-165, 2-{[5-chloro-4-(1-methyl-1H-benzimidazol-2-yl)pyridin-2-yl]amino}ethanesulfonamide] | 280 nM | 62% | 374 nM
4 | COC1CCOC2(CCN(c3cc(-c4nc5ccccc5n4C)c(Cl)cn3)CC2)C1 (stereo not drawn) [Example A-90, 9-[5-chloro-4-(1-methyl-1H-benzimidazol-2-yl)pyridin-2-yl]-4-methoxy-1-oxa-9-azaspiro[5.5]undecane] | 16 nM | 88% | 71 nM
5 | CC(=O)NC1CCN(c2cc(-c3nc4ccccc4n3C)c(Cl)cn2)C1 (stereo in doubt) [Example A-116, N-{(3R)-1-[5-chloro-4-(1-methyl-1H-benzimidazol-2-yl)pyridin-2-yl]pyrrolidin-3-yl}acetamide] | 86 nM | 68% | –
6 | CC(=O)N1CCN(c2cc(-c3nc4ccccc4n3C)c(Cl)cn2)[C@@H](C)C1 [Example A-199, 2-{2-[(2S)-4-acetyl-2-methylpiperazin-1-yl]-5-chloropyridin-4-yl}-1-methyl-1H-benzimidazole] | 7.2 nM | 100% | 9 nM
7 | CC(=O)N1CCN(c2ccc(Cl)c(-c3nc4ccccc4n3C)n2)CC1 [Example B-2, 2-[6-(4-acetylpiperazin-1-yl)-3-chloropyridin-2-yl]-1-methyl-1H-benzimidazole] | 32 nM | 95% | 18 nM
8 | Cn1c(-c2ccnc(N3CCC(O)CC3)c2)nc2ccccc21 [Example A-18, 1-[4-(1-methyl-1H-benzimidazol-2-yl)pyridin-2-yl]piperidin-4-ol] | 115 nM | 79% | 75 nM
9 | Cn1c(-c2cc(N3CCOCC3)ncc2Cl)nc2ccccc21 [Example A-34, 2-(5-chloro-2-morpholin-4-ylpyridin-4-yl)-1-methyl-1H-benzimidazole] | 16 nM | 95% | 22 nM
10 | Cn1c(-c2cc(N3CCC4(CC3)CNC(=O)O4)ncc2Cl)nc2ccccc21 [Example A-198, 8-[5-chloro-4-(1-methyl-1H-benzimidazol-2-yl)pyridin-2-yl]-1-oxa-3,8-diazaspiro[4.5]decan-2-one] | 7 nM | 87% | 9 nM
11 | Cn1c(-c2cc(N3CCOCC(N4CCC(O)CC4)C3)ncc2Cl)nc2ccccc21 (stereo not drawn) [Example A-115, 1-{4-[5-chloro-4-(1-methyl-1H-benzimidazol-2-yl)pyridin-2-yl]-1,4-oxazepan-6-yl}piperidin-4-ol] | 221 nM | 69% | –
12 | Cn1c(-c2cc(N3CCOCC(CO)C3)ncc2Cl)nc2ccccc21 (stereo not drawn) [Example A-47, {4-[5-chloro-4-(1-methyl-1H-benzimidazol-2-yl)pyridin-2-yl]-1,4-oxazepan-6-yl}methanol] | 7 nM | 101% | 9 nM
13 | Cn1c(-c2cc(N3CCc4[nH]cnc4C3)ncc2Cl)nc2ccccc21 [Example A-107, 5-[5-chloro-4-(1-methyl-1H-benzimidazol-2-yl)pyridin-2-yl]-4,5,6,7-tetrahydro-1H-imidazo[4,5-c]pyridine] | 37 nM | 77% | 123 nM
14 | Cn1c(-c2cc(N3CCC(S(C)(=O)=O)C3)ncc2Cl)nc2ccccc21 (stereo not drawn) [Example A-24, 2-{5-chloro-2-[3-(methylsulfonyl)pyrrolidin-1-yl]pyridin-4-yl}-1-methyl-1H-benzimidazole] | 20 nM | 82% | 54 nM
15 | CC(C)NC(=O)NC1CN(c2cc(-c3nc4ccccc4n3C)c(Cl)cn2)C1 [Example A-188, 1-{1-[5-chloro-4-(1-methyl-1H-benzimidazol-2-yl)pyridin-2-yl]azetidin-3-yl}-3-isopropylurea] | 10 nM | 97% | 15 nM
16 | Cn1c(-c2cc(N3CCN(C=O)CC3)ncc2Cl)nc2cccnc21 [Example A-170, 4-[5-chloro-4-(3-methyl-3H-imidazo[4,5-b]pyridin-2-yl)pyridin-2-yl]piperazine-1-carbaldehyde] | 118 nM | 81% | 140 nM
17 | CC(=O)N1CCN(c2cc(-c3nc4ccccc4n3C)c(C)cn2)CC1 [Example E-4, 2-[2-(4-acetylpiperazin-1-yl)-5-methylpyridin-4-yl]-1-methyl-1H-benzimidazole] | 52.5 nM | 92% | 61 nM
18 | Cn1c(-c2nc(N3CCC(O)CC3)ccc2Cl)nc2ccccc21 [Example B-6, 1-[5-chloro-6-(1-methyl-1H-benzimidazol-2-yl)pyridin-2-yl]piperidin-4-ol] | 12 nM | 95% | 10 nM
19 | Cn1c(-c2cc(N3CC[C@@H](O)[C@@H](O)C3)ncc2Cl)nc2ccccc21 [Example A-96, (3S,4R)-1-[5-chloro-4-(1-methyl-1H-benzimidazol-2-yl)pyridin-2-yl]piperidine-3,4-diol] | 16 nM | 86% | 46 nM
20 | Cn1c(-c2cc(N3CCC(CO)C3)ncc2Cl)nc2ccccc21 (stereo not drawn) [Example A-102, {1-[5-chloro-4-(1-methyl-1H-benzimidazol-2-yl)pyridin-2-yl]pyrrolidin-3-yl}methanol] | 40 nM | 80% | 91 nM
21 | Cn1c(-c2cc(N3CCN(C(=O)C4CCOC4)CC3)ncc2Cl)nc2ccccc21 (stereo not drawn) [Example A-191, 2-{5-chloro-2-[4-(tetrahydrofuran-3-ylcarbonyl)piperazin-1-yl]pyridin-4-yl}-1-methyl-1H-benzimidazole] | 1.7 nM | 101% | 6 nM
22 | Cn1c(-c2cc(N3C[C@@H]4[C@H](C3)[C@H]4NS(C)(=O)=O)ncc2Cl)nc2ccccc21 [Example A-8, N-{(1R,5S,6S)-3-[5-chloro-4-(1-methyl-1H-benzimidazol-2-yl)pyridin-2-yl]-3-azabicyclo[3.1.0]hex-6-yl}methanesulfonamide] | 15 nM | 94% | 64 nM
23 | Cc1ccc(N2CCC(NS(C)(=O)=O)CC2)nc1-c1nc2ccccc2n1C [Example B-13, N-{1-[5-methyl-6-(1-methyl-1H-benzimidazol-2-yl)pyridin-2-yl]piperidin-4-yl}methanesulfonamide] | 8.2 nM | 98% | 11 nM
24 | C[C@H]1CN(c2cc(-c3nc4ccccc4n3C)c(Cl)cn2)CCN1S(C)(=O)=O [Example A-161, 2-{5-chloro-2-[(3S)-3-methyl-4-(methylsulfonyl)piperazin-1-yl]pyridin-4-yl}-1-methyl-1H-benzimidazole] | 3 nM | 98% | 9 nM
25 | Cn1c(-c2cc(N3CCN(S(C)(=O)=O)CC3)ncc2Cl)nc2ccccc21 [Example A-4, 2-{5-chloro-2-[4-(methylsulfonyl)piperazin-1-yl]pyridin-4-yl}-1-methyl-1H-benzimidazole] | 3 nM | 91% | 29.2 nM
26 | CN(C)CC(=O)N1CCN(c2ncc(Cl)c(-c3nc4ccccc4n3C)n2)CC1 [Example C-15, 2-{4-[5-chloro-4-(1-methyl-1H-benzimidazol-2-yl)pyrimidin-2-yl]piperazin-1-yl}-N,N-dimethyl-2-oxoethanamine] | 8.9 nM | 95% | 64 nM
27 | Cn1c(-c2cc(N3C[C@@H](CO)[C@@H](CO)C3)ncc2Cl)nc2ccccc21 [Example A-82, {(3R,4S)-1-[5-chloro-4-(1-methyl-1H-benzimidazol-2-yl)pyridin-2-yl]pyrrolidine-3,4-diyl}dimethanol] | 16 nM | 91% | 43 nM
28 | Cc1noc(C2CN(c3cc(-c4nc5ccccc5n4C)c(Cl)cn3)CCO2)n1 (stereo not drawn) [Example A-64, 2-{5-chloro-2-[2-(3-methyl-1,2,4-oxadiazol-5-yl)morpholin-4-yl]pyridin-4-yl}-1-methyl-1H-benzimidazole] | 7 nM | 95% | 28 nM
29 | C[C@@H]1CN(S(C)(=O)=O)CCN1c1cc(-c2nc3ccccc3n2C)c(Cl)cn1 [Example A-166, 2-{5-chloro-2-[(2R)-2-methyl-4-(methylsulfonyl)piperazin-1-yl]pyridin-4-yl}-1-methyl-1H-benzimidazole] | 4 nM | 102% | –
30 | COCCS(=O)(=O)NC1CN(c2cc(-c3nc4ccccc4n3C)c(Cl)cn2)C1 [Example A-195, N-{1-[5-chloro-4-(1-methyl-1H-benzimidazol-2-yl)pyridin-2-yl]azetidin-3-yl}-2-methoxyethanesulfonamide] | 4.9 nM | 101% | 9.5 nM
